Measured values taken from patent publication US20100273848A1, “IMINOPYRROLIDONE THIOL AMINO ACID CONJUGATES, PHARMACEUTICAL COMPOSITIONS AND METHODS FOR THE TREATMENT OF CANCER” (THE ARIZONA BD OR REG ON BEHALF OF THE UNIV OF AZ, priority 2007, published 2010).
pIC50: −log10 of the molar value. Where two headings read alike, the source gives them in different places.

Legend:
Raji lymphoma cells = experiment: Cytotoxicity study, MTT assay, Raji cells; format: cell-based, human; details: 96 hours, read-out: IC50 at 72* or 96 hours
Procedure: (§1) Example 1 illustrates a method of determining the antineoplastic activity of iminopyrrolidone thiol amino acid conjugates in vitro. Ninety-six (96) well plates (BD Biosciences, San Jose, Calif.) were seeded with approximately 5000 cells in 160 μl of growth medium per well in the last eleven columns of each plate. The first column of each plate was filled with 160 μl of growth medium containing no cells to be used as a blank. Following a 24-hour incubation period, the cells in the last ten columns were drugged (leaving row one as a blank and row two as a control with uninhibited cell growth) with 40 μl of either simexonyl homocysteine or imexon in growth medium. The quantity of drug added to the wells of each respective column was constant, but varied from column to column such that the resulting concentration in the total volume of each individual well ranged from 1 μM to 1000 μM. […]

DB lymphoma cells [1] = experiment: Cytotoxicity study, MTT assay, DB cells; format: cell-based, human; details: 96 hours, read-out: IC50 at 72* or 96 hours
Procedure: as §1

[2] = test system: MiaPaCa human pancreatic cancer cells; experiment: Cytotoxicity study, SRB assay, MiaPaCa cells; format: cell-based; details: 96 hours, read-out: IC50 at 72* or 96 hours
Procedure: as §1

[3] = test system: 8226/I10 human myeloma cells (chemotherapy resistant); experiment: Cytotoxicity study, MTT assay, 8226/I10 cells; format: cell-based; details: 8226/I10 - Myeloma, 96 hours, read-out: IC50 at 72* or 96 hours
Procedure: as §1

DB lymphoma cells [4] = details: 45, 90 or 180 μM, 48 hours after drug exposure, FIG. 6
Procedure: DB and Raji lymphoma cells were kindly provided by Dr. Alan List (University of Arizona, Tucson, Ariz.). All cell lines were cultured in RPMI 1640 media (Mediatech, Herndon, Va.) enhanced with 5% (v/v) (10% for DB and Raji cells) heat-inactivated bovine calf serum (Hyclone Laboratories, Logan, Utah), 2 mM L-glutamine, 100 U/ml penicillin, and 100 μg/ml streptomycin (each from Invitrogen, Carlsbad, Calif.) in a humidified incubator containing 5% CO2 at 37° C.
DB lymphoma cells were cultured in ninety-six (96) well plates (BD Biosciences) under conditions as described hereinbefore. […] Forty eight hours after drug exposure, the percentage of necrotic, viable, proapoptotic, and apoptotic cells in each respective well was measured using an annexin V—FITC (fluorescein isothiocyanate labeled annexin V) apoptosis detection kit (BioVision Labs) according to the manufacturer's instructions in conjunction with a Bectin Dickenson FACScan (San Jose, Calif.) fluorescence activated cell sorter using CellQuest Pro software (BD Biosciences). […]
A threshold intensity for the fluorescence signal permits one to distinguish between proapoptotic and apoptotic cells in the flow cytometric analysis, but both are indicative of an induction of apoptosis by the drug.

[5] = test system: A375 human malignant melanoma cells; experiment: Cytotoxicity study, SRB assay, A375 cells; format: cell-based; details: 96 hours, read-out: IC50 at 72* or 96 hours
Procedure: as §1

[6] = test system: 8226/s human myeloma cells (chemotherapy sensitive); experiment: Cytotoxicity study, MTT assay, 8226/s cells; format: cell-based; details: 8226/s - Myeloma, 96 hours, read-out: IC50 at 72* or 96 hours
Procedure: as §1

[7] = test system: DU-145 human prostate cancer cells; experiment: Cytotoxicity study, SRB assay, DU-145 cells; format: cell-based; details: DU-145 - Prostate, 96 hours, read-out: IC50 at 72* or 96 hours
Procedure: as §1

[8] = test system: PC-3 human prostate cancer cells; experiment: Cytotoxicity study, SRB assay, PC-3 cells; format: cell-based; details: PC-3 - Prostate, 72 hours (*), read-out: IC50 at 72* or 96 hours
Procedure: as §1

| Compound | pIC50 (Raji lymphoma cells; Homo sapiens) | pIC50 (DB lymphoma cells [1]; Homo sapiens) | pIC50 ([2]; Homo sapiens, MIA PaCa-2, MiaPaCa - Pancreas) | pIC50 [3] | pIC50 (Raji lymphoma cells) | induction of apoptosis (percentage of proapoptotic and apoptotic cells) (DB lymphoma cells [4]) | pIC50 [5] | pIC50 (DB lymphoma cells [1]) | pIC50 [6] | pIC50 [7] | pIC50 [8] | pIC50 ([2]; MiaPaCa - Pancreas) |
| --- | --- | --- | --- | --- | --- | --- | --- | --- | --- | --- | --- | --- |
| NC1=NC(=O)N2CC12 (racemic) [imexon, (5RS)-4-amino-1,3-diazabicyclo[3.1.0]hex-3-en-2-one, reference compound] | 4.30 | 4.27 | 3.72 |  |  |  |  |  |  |  |  |  |
| simexonyl homocysteine |  |  |  | 4.02 | 4.66 | induced apoptosis | 4.81 | 4.64 | 4.87 | 3.85 | 4.31 | 4.34 |
